# Measured values: patent US6339104B1, “Therapeutic agent for primary biliary cirrhosis” (The City of Osaka, priority 1998, dated 2002)
# System: patient with primary biliary cirrhosis (stage IV in Scheuer classification)
# Assay: Clinical effect of oral L-alanine in a patient with terminal-stage primary biliary cirrhosis
# Type: in vivo, human
# Procedure: The clinical effect of L-alanine was examined in a patient with primary biliary cirrhosis. The patient was suffering from primary biliary cirrhosis in the terminal stages (stage IV in Scheuer classification). After their symptoms had appeared, 600 mg/day of ursodeoxycholic acid was orally administered as a therapeutic agent everyday. However, this treatment became ineffective and the results of biochemical tests also became worse. Under these conditions, 18 g/day of L-alanine was orally administered to the patient in three doses every day for two months. Before and after the administration of L-alanine, two weeks in total of the observation period was taken, and then eight weeks of the administration period was taken. The blood specimen was taken once a week to determine total serum bilirubin and transaminase (AST). By the administration of L-alanine, total serum bilirubin and transaminase were reduced. […] As the administration was finished, increase of both total serum bilirubin and transaminase was observed.
# [1] = observation period after end of 18 g/day oral administration
# [2] = patient, 18 g/day orally in three doses, eight weeks administration, weekly blood specimen
compound,measurement,setting,value
C[C@H](N)C(=O)O [L-alanine],time of maximum effect after the start of the administration,"18 g/day orally, effect on total serum bilirubin and transaminase, lasted in the course of the administration",two
same,therapeutic effect on the terminal case of primary biliary cirrhosis (symptoms),"L-alanine 18 g/day orally, ursodeoxycholic acid 600 mg/day orally",excellent therapeutic effect
same,total serum bilirubin after the administration was finished,[1],increase
same,transaminase after the administration was finished,[1],increase
same,total serum bilirubin,[2],reduced
same,transaminase (AST),[2],reduced
